Assay results reported in patent publication US20260102501A1, “ANTI-CANCER NUCLEAR HORMONE RECEPTOR-TARGETING COMPOUNDS” (Nuvation Bio Inc., priority 2022, published 2026).

What was measured:
[1] = molecular target: T1, AR (cytosol from LnCaP cells) (Homo sapiens, UniProt P10275, T878A); test: AR binding assay (3H-R1881 displacement)
T1 sequence (P10275 1-920 T878A): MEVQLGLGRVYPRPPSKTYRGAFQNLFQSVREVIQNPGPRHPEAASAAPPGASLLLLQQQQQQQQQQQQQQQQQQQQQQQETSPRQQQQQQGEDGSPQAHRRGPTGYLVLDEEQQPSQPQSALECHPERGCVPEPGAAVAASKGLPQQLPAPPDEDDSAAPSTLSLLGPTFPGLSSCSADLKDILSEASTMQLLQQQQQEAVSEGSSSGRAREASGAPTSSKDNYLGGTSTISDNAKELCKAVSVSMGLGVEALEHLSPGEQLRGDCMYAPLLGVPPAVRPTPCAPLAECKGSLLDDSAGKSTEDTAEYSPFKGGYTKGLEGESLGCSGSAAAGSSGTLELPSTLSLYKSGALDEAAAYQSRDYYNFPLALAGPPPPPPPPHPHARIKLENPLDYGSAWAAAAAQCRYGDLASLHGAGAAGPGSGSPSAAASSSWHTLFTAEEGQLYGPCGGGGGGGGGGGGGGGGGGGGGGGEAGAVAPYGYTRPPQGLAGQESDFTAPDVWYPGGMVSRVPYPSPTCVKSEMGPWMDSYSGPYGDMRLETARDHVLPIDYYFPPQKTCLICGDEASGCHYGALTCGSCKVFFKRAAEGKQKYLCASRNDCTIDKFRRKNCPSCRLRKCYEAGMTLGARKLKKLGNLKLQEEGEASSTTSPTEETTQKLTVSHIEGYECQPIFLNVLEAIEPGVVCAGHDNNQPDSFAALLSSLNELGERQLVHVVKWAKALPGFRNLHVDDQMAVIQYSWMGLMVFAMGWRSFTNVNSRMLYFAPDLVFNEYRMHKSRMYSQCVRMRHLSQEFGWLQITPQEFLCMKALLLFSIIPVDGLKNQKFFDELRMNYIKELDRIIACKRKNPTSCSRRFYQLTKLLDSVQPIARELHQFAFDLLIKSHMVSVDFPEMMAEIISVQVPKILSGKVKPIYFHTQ
Protocol: The plate was then centrifuged at 3000 rpm for 30 minutes at 4° C.

[2] = molecular target: T2, Progesterone Receptor (PR)-LBD and coactivator peptide (Homo sapiens, UniProt P06401); test: PR coactivator antagonist assay; conditions: 2.5 nM PR-LBD, 10 nM progesterone-induced fluorescence response
T2 sequence (P06401 679-913 limits assumed): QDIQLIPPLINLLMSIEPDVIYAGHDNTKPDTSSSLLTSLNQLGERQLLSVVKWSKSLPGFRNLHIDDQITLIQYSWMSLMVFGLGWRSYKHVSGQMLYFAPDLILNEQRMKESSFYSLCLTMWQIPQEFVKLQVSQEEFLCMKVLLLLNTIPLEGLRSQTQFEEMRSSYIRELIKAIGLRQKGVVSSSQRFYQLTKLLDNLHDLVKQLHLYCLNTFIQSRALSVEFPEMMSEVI

T47D cells = test: Cell viability assay (CellTiterGlo); assay type: cell-based; conditions: Homo sapiens, 144 h, read-out: T47D (IC50, nM)
[3] = molecular target: T3, Progesterone PR-B receptors from human breast carcinoma T47D cells (Homo sapiens, UniProt P06401); test: PR binding assay ([3H] Progesterone displacement)
T3 sequence (P06401 1-933): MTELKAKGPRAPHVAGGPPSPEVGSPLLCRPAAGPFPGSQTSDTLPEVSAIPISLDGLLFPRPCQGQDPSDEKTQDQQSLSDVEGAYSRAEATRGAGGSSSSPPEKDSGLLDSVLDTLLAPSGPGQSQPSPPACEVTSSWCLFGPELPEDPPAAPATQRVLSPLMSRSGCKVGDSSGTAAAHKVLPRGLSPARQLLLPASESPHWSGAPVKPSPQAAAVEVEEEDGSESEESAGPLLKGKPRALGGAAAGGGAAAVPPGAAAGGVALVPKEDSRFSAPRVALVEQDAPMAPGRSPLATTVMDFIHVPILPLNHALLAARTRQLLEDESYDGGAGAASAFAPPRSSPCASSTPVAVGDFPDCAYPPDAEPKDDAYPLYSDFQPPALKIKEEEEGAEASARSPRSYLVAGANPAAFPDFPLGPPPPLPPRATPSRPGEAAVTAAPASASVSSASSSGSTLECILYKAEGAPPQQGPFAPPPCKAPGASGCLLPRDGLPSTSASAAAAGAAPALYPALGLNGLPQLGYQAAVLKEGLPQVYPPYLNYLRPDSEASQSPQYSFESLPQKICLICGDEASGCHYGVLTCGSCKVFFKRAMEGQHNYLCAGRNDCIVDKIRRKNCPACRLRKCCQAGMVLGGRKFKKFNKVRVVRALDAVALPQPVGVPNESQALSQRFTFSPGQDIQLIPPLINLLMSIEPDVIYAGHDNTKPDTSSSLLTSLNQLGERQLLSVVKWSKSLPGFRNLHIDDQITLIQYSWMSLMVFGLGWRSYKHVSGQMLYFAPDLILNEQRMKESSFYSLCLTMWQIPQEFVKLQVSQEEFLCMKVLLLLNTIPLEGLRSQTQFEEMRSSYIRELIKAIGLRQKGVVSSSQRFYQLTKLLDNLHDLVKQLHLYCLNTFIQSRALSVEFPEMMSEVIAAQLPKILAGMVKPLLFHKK

[4] = molecular target: T4, GR (cytosol from IM-9 cells) (Homo sapiens, UniProt P04150); test: GR binding assay (3H-Dexamethasone displacement)
T4 sequence (P04150 1-777): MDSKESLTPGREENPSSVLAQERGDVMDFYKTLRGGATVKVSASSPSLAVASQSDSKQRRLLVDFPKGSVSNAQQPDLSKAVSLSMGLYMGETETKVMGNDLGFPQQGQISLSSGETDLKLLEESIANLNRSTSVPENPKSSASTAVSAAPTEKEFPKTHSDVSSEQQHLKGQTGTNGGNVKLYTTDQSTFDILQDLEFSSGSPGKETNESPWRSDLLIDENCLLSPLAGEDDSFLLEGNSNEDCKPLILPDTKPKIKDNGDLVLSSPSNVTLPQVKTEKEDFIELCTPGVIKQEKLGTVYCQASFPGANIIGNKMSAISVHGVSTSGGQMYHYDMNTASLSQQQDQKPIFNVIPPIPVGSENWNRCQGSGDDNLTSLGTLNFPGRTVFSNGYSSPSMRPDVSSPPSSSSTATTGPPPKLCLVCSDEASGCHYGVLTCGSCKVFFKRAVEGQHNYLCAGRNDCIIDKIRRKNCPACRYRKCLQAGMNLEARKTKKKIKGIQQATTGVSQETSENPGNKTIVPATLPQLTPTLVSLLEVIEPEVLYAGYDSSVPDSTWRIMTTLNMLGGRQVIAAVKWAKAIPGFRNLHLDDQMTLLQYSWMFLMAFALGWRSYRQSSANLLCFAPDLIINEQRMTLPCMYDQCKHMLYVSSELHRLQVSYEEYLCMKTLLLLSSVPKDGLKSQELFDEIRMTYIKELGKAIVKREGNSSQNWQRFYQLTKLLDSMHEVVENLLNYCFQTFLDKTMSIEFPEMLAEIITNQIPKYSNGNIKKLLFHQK

[5] = molecular target: T5, ligand binding domain of the glucocorticoid receptor (HEK293 cells stably expressing) (Homo sapiens, UniProt P04150); test: GR antagonism assay (luciferase reporter)
T5 sequence (P04150 524-758 limits assumed): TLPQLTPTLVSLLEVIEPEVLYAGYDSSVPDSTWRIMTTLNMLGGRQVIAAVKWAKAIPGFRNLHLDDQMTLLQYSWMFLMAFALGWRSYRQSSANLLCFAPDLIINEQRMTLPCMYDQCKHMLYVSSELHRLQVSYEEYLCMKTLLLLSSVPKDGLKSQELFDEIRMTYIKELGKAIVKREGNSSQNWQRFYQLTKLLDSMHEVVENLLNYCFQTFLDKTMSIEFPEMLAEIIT

IEC6 cells = test: Cell viability assay (CellTiterGlo); conditions: Rattus norvegicus, IEC-6, 144 h, read-out: IEC-6 (IC50, nM)
LNCap cells = test: Cell viability assay (CellTiterGlo); assay type: cell-based; conditions: Homo sapiens, 144 h, read-out: LNCap (IC50, nM)

CC[C@@]1(O)C(=O)OCc2c1cc1n(c2=O)Cc2cc3c(CN(C)C)c(OC(=O)N4CCN(CCCCCN(C)c5ccc([C@H]6C[C@@]7(C)[C@@H](CC[C@]7(OC(C)=O)C(C)=O)[C@@H]7CCC8=CC(=O)CCC8=C76)cc5)CC4)ccc3nc2-1 [Compound 8, (S)-10-((Dimethylamino)methyl)-4-ethyl-4-hydroxy-3,14-dioxo-3,4,12,14-tetrahydro-1H-pyrano[3′,4′:6,7]indolizino[1,2-b]quinolin-9-yl 4-(5-((4-((8S,11R,13S,14S,17R)-17-acetoxy-17-acetyl-13-methyl-3-oxo-2,3,6,7,8,11,12,13,14,15,16,17-dodecahydro-1H-cyclopenta[a]phenanthren-11-yl)phenyl)(methyl)amino)pentyl)piperazine-1-carboxylate]
IC50 [1]: < 0.01 µM | PR antagonism [2]: a (IC50 =< 10 nM) | IC50 (T47D cells): 10 to 100 nM | IC50 [3]: < 0.01 µM | IC50 [4]: 0.01 to 0.1 µM | IC50 [5]: 0.01 to 0.1 µM | IC50 (IEC6 cells): 101 to 1000 nM | IC50 (LNCap cells): 101 to 1000 nM

CCCCCCC(=O)O[C@]1(CC)C(=O)OCc2c1cc1n(c2=O)Cc2cc3c(CN(C)C)c(OC(=O)N4CCN(CCCCCCN(C)c5ccc([C@H]6C[C@@]7(C)[C@@H](CC[C@]7(OC(C)=O)C(C)=O)[C@@H]7CCC8=CC(=O)CCC8=C76)cc5)CC4)ccc3nc2-1 [Compound No. 12, (S)-10-((Dimethylamino)methyl)-4-ethyl-4-(heptanoyloxy)-3,14-dioxo-3,4,12,14-tetrahydro-1H-pyrano[3′,4′:6,7]indolizino[1,2-b]quinolin-9-yl 4-(6-((4-((8S,11R,13S,14S,17R)-17-acetoxy-17-acetyl-13-methyl-3-oxo-2,3,6,7,8,11,12,13,14,15,16,17-dodecahydro-1H-cyclopenta[a]phenanthren-11-yl)phenyl)(methyl)amino)hexyl)piperazine-1-carboxylate]
IC50 [1]: 0.101 to 1 µM | PR antagonism [2]: a (IC50 =< 10 nM) | IC50 (T47D cells): > 1000 nM | IC50 [3]: < 0.01 µM | IC50 [4]: < 0.01 µM | IC50 [5]: 0.01 to 0.1 µM | IC50 (IEC6 cells): > 1000 nM | IC50 (LNCap cells): > 1000 nM

CC[C@@]1(OC(=O)CN(C)C)C(=O)OCc2c1cc1n(c2=O)Cc2cc3c(CN(C)C)c(OC(=O)N4CCN(CCCCCCN(C)c5ccc([C@H]6C[C@@]7(C)[C@@H](CC[C@]7(OC(C)=O)C(C)=O)[C@@H]7CCC8=CC(=O)CCC8=C76)cc5)CC4)ccc3nc2-1 [Compound No. 14, (S)-10-((Dimethylamino)methyl)-4-((dimethylglycyl)oxy)-4-ethyl-3,14-dioxo-3,4,12,14-tetrahydro-1H-pyrano[3′,4′:6,7]indolizino[1,2-b]quinolin-9-yl 4-(6-((4-((8S,11R,13S,14S,17R)-17-acetoxy-17-acetyl-13-methyl-3-oxo-2,3,6,7,8,11,12,13,14,15,16,17-dodecahydro-1H-cyclopenta[a]phenanthren-11-yl)phenyl)(methyl)amino)hexyl)piperazine-1-carboxylate]
IC50 [1]: 0.01 to 0.1 µM | PR antagonism [2]: a (IC50 =< 10 nM) | IC50 (T47D cells): 10 to 100 nM | IC50 [3]: < 0.01 µM | IC50 [4]: < 0.01 µM | IC50 [5]: 0.01 to 0.1 µM | IC50 (IEC6 cells): 10 to 100 nM | IC50 (LNCap cells): 101 to 1000 nM
